Molecular target: T1, human Bradykinin B1 receptor (Homo sapiens, UniProt P46663)
T1 construct: host or cells: CHO-K1
T1 sequence (P46663 1-353): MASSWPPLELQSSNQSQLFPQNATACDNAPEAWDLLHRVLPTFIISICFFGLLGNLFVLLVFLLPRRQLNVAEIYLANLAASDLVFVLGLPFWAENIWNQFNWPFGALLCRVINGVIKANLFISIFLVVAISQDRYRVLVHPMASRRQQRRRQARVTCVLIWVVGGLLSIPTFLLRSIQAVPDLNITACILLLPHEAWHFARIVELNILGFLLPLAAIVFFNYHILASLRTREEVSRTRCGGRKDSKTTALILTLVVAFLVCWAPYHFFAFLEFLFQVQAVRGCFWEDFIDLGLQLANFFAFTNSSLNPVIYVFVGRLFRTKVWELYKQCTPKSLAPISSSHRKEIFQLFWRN
Test: Calcium flux Assay (FLIPR) with cells expressing human Bradykinin B1 receptor (hB1)
Type: cell-based
Details: absence of 0.1% BSA in assay buffer; CHO-K1 cell line expressing human B1 receptor; agonist Lys-(Des-Arg)-Bradykinin; read-out: hB1 free IC50
Protocol: The potency to inhibit the Bradykinin B1 receptor was determined for the compound examples of this invention in a cell-based fluorescent calcium-mobilisation assay. The assay measures the ability of compound examples to inhibit Bradykinin B1 receptor agonist-induced increase of intracellular free Ca^2+ in the cell line expressing Bradykinin B1 receptor. Specifically, calcium indicator-loaded cells are pre-incubated in the absence or presence of different concentrations of compound examples followed by the stimulation with a selective Bradykinin B1 receptor agonist peptide. The change of the intracellular Ca^2+ concentration is monitored with a fluorescent plate reader FLIPR^TETRA®
Calcium flux Assays (FLIPR) with cells expressing human Bradykinin B1 receptor (hB1) Calcium flux Assay (FLIPR) with recombinant cells for Bradykinin B1 receptor antagonist, either in the presence (hB1 IC50) or absence (hB1 free IC50) of 0.1% Bovine Serum Albumin (BSA) in assay buffer.
CHO—K1 cell line expressing human B1 receptor was purchased from Euroscreen (Gosselies, Belgium, with reference name hB1-D1). The cells were grown in Nutrient Mixture Ham's F12 (Sigma) containing 10% Foetal bovine serum (Sigma) and 400 μg/mL G418 (Sigma), 5 μg/mL puromycin (Sigma).
For the calcium flux assay, 80% confluent cells were detached from the culture vessels with Versene (Gibco), and seeded into 384-well plates (Cell binding Surface; Corning, N.Y.; #3683) at a density of 15,000 cells per well. Cells were seeded in a volume of 50 μL in medium without antibiotics and incubated overnight in a humidified atmosphere with 5% CO2 at 37° C. […] The calcium indicator loaded cells were incubated at 37° C. for 2 hrs. Extracellular dye was then removed and each well was filled with 45 μL of assay buffer. Cell plates were kept in dark until used. Example compounds were assayed at 8 concentrations in triplicate. Serial 10-fold dilutions in 100% DMSO were made at a 100-times higher concentration than the final concentration, and then diluted 1:10 in assay buffer. 5 μL of each diluted compound was added to the well of cell plates (yielding final concentration with 1% DMSO), and incubated for 30 min at 28° C. before the addition of B1 receptor agonist on the FLIPR instrument.
Agonist plates contained the agonist Lys-(Des-Arg)-Bradykinin (Bachem, Brackley) at 3.5×EC90 in assay buffer with 1% DMSO. The addition of agonist 20 μl per well to the assay plate was carried out on the FLIPR instrument while continuously monitoring Ca^2+-dependent fluorescence at 538 nm. A peptide antagonist Lys-(Des-Arg-Leu)-Bradykinin (Bachem, Brackley) at 20 μM was used to determine the full inhibition as control.
Peak fluorescence was used to determine the response to agonist obtained at each concentration of example compound by the following equation:
% Response=100*(RFU(example compound)−RFU(control))/(RFU(DMSO)−RFU(control)) • RFU means relative fluorescence units. • Control means full inhibition by the peptide antagonist Lys-(Des-Arg-Leu)-Bradykinin at 20
The response values were plotted against the logarithm of the example compound concentrations. The example compounds were tested in triplicates per plate and mean values were plotted in Excel XLfit to determine IC50 values, percentage of maximal inhibition and the Hill slopes.
IC50 values of example compounds in Calcium flux Assay (FLIPR) as shown in table 1 were determined according to the protocol described above in the absence of 0.1% BSA in assay buffer.

Row | Structure (SMILES) | IC50
1 | O=C(O[C@@H]1CCOC1)c1ccc(NC(=O)C2(c3ccc(C(F)(F)F)cc3F)CC2)cc1-c1nnn[nH]1 [Example 20, (3R)-Tetrahydrofuran-3-yl 4-[({1-[2-fluoro-4-(trifluoromethyl)phenyl]cyclopropyl}carbonyl)amino]-2-(1H-tetrazol-5-yl)benzoate] | 14 nM
2 | O=C(OC1CCOCC1)c1ccc(NC(=O)C2(c3ccc(C(F)(F)F)cc3F)CC2)cc1-c1nnn[nH]1 [Example 21, Tetrahydro-2H-pyran-4-yl 4-[({1-[2-fluoro-4-(trifluoromethyl)phenyl]cyclopropyl}carbonyl)amino]-2-(1H-tetrazol-5-yl)benzoate] | 22 nM
3 | O=C(OCC1CCOCC1)c1ccc(NC(=O)C2(c3ccc(C(F)(F)F)cc3F)CC2)cc1-c1nnn[nH]1 [Example 22, Tetrahydro-2H-pyran-4-ylmethyl 4-[({1-[2-fluoro-4-(trifluoromethyl)phenyl]cyclopropyl}carbonyl)amino]-2-(1H-tetrazol-5-yl)benzoate] | 18 nM
4 | CN1CCC(OC(=O)c2ccc(NC(=O)C3(c4ccc(C(F)(F)F)cc4F)CC3)cc2-c2nnn[nH]2)CC1 [Example 23, 1-Methylpiperidin-4-yl 4-[({1-[2-fluoro-4-(trifluoromethyl)phenyl]cyclopropyl}carbonyl)amino]-2-(1H-tetrazol-5-yl)benzoate] | 319 nM
5 | CC(C)(C)COC(=O)c1ccc(NC(=O)C2(c3ccc(C(F)(F)F)cc3F)CC2)cc1-c1nnn[nH]1 [Example 29, 2,2-Dimethylpropyl 4-[({1-[2-fluoro-4-(trifluoromethyl)phenyl]cyclopropyl}carbonyl)amino]-2-(1H-tetrazol-5-yl)benzoate] | 6 nM
6 | O=C(OC1CCC1)c1ccc(NC(=O)C2(c3ccc(C(F)(F)F)cc3F)CC2)cc1-c1nnn[nH]1 [Example 30, Cyclobutyl 4-[({1-[2-fluoro-4-(trifluoromethyl)phenyl]cyclopropyl}carbonyl)amino]-2-(1H-tetrazol-5-yl)benzoate] | 2 nM
7 | O=C(c1ccc(NC(=O)C2(c3cccc(Cl)c3)CC2)cc1-c1nnn[nH]1)N1CCCCC1 [Example 33, 1-(3-Chlorophenyl)-N-[4-(piperidin-1-ylcarbonyl)-3-(1H-tetrazol-5-yl)phenyl]cyclopropanecarboxamide] | 633 nM
8 | O=C(c1ccc(NC(=O)C2(c3ccc(C(F)(F)F)cc3F)CC2)cc1-c1nnn[nH]1)N1CCCCC1 [Example 34, 1-[2-Fluoro-4-(trifluoromethyl)phenyl]-N-[4-(piperidin-1-ylcarbonyl)-3-(1H-tetrazol-5-yl)phenyl]cyclopropanecarboxamide] | 70 nM
9 | COC1CCN(C(=O)c2ccc(NC(=O)C3(c4ccc(C(F)(F)F)cc4F)CC3)cc2-c2nnn[nH]2)CC1 [Example 36, 1-[2-Fluoro-4-(trifluoromethyl)phenyl]-N-{4-[(4-methoxypiperidin-1-yl)carbonyl]-3-(1H-tetrazol-5-yl)phenyl}cyclopropanecarboxamide] | 523 nM
10 | O=C(NC1CCCC1)c1ccc(NC(=O)C2(c3ccc(C(F)(F)F)cc3F)CC2)cc1-c1nnn[nH]1 [Example 39, N-cyclopentyl-4-[({1-[2-fluoro-4-(trifluoromethyl)phenyl]cyclopropyl}carbonyl)amino]-2-(1H-tetrazol-5-yl)benzamide] | 34 nM
11 | CN(C(=O)c1ccc(NC(=O)C2(c3cccc(Cl)c3)CC2)cc1-c1nnn[nH]1)C1CCCC1 [Example 40, 4-({[1-(3-Chlorophenyl)cyclopropyl]carbonyl}amino)-N-cylcopentyl-N-methyl-2-(1H-tetrazol-5-yl)benzamide] | 1240 nM
12 | CN(C(=O)c1ccc(NC(=O)C2(c3ccc(C(F)(F)F)cc3F)CC2)cc1-c1nnn[nH]1)C1CCCC1 [Example 41, N-cyclopentyl-4-[({1-[2-fluoro-4-(trifluoromethyl)phenyl]cyclopropyl}carbonyl)amino]-N-methyl-2-(1H-tetrazol-5-yl)benzamide] | 205 nM
13 | O=C(NC1CCCCC1)c1ccc(NC(=O)C2(c3ccc(C(F)(F)F)cc3F)CC2)cc1-c1nnn[nH]1 [Example 42, N-cyclohexyl-4-[({1-[2-fluoro-4-(trifluoromethyl)phenyl]cyclopropyl}carbonyl)amino]-2-(1H-tetrazol-5-yl)benzamide] | 34 nM
14 | CN(C(=O)c1ccc(NC(=O)C2(c3ccc(C(F)(F)F)cc3F)CC2)cc1-c1nnn[nH]1)C1CCCCC1 [Example 43, N-cyclohexyl-4-[({1-[2-fluoro-4-(trifluoromethyl)phenyl]cyclopropyl}carbonyl)amino]-N-methyl-2-(1H-tetrazol-5-yl)benzamide] | 50 nM
15 | O=C(NCC1CCCCC1)c1ccc(NC(=O)C2(c3ccc(C(F)(F)F)cc3F)CC2)cc1-c1nnn[nH]1 [Example 44, N-(cyclohexylmethyl)-4-[({1-[2-fluoro-4-(trifluoromethyl)phenyl]cyclopropyl}carbonyl)amino]-2-(1H-tetrazol-5-yl)benzamide] | 13 nM

Results, then the molecule that gave them:

Row | IC50 | Structure (SMILES)
16 | 2 nM | CC[C@@H](C)OC(=O)c1ccc(NC(=O)C2(c3ccc(C(F)(F)F)cc3F)CC2)cc1-c1nnn[nH]1 [Example 24, (2R)-Butan-2-yl 4-[({1-[2-fluoro-4-(trifluoromethyl)phenyl]cycloproyl}carbonyl)amino]-2-(1H-tetrazol-5-yl)benzoate]
17 | 3 nM | CC[C@H](C)OC(=O)c1ccc(NC(=O)C2(c3ccc(C(F)(F)F)cc3F)CC2)cc1-c1nnn[nH]1 [Example 25, (2S)-Butan-2-yl 4-[({1-[2-fluoro-4-(trifluoromethyl)phenyl]cyclopropyl}carbonyl)amino]-2-(1H-tetrazol-5-yl)benzoate]
18 | 3 nM | CC[C@@H](C)OC(=O)c1ccc(NC(=O)C2(c3ccc(OC(F)(F)F)cc3F)CC2)cc1-c1nnn[nH]1 [Example 26, (2R)-Butan-2-yl 4-[({1-[2-fluoro-4-(trifluoromethoxy)phenyl]cyclopropyl}carbonyl)amino]-2-(1H-tetrazol-5-yl)benzoate]
19 | 2 nM | CC[C@H](C)OC(=O)c1ccc(NC(=O)C2(c3ccc(OC(F)(F)F)cc3F)CC2)cc1-c1nnn[nH]1 [Example 27, (2S)-Butan-2-yl 4-[({1-[2-fluoro-4-(trifluoromethoxy)phenyl]cyclopropyl}carbonyl)amino]-2-(1H-tetrazol-5-yl)benzoate]
20 | 3 nM | CC(C)COC(=O)c1ccc(NC(=O)C2(c3ccc(C(F)(F)F)cc3F)CC2)cc1-c1nnn[nH]1 [Example 28, Isobutyl 4-[({1-[2-fluoro-4-(trifluoromethyl)phenyl]cyclopropyl}carbonyl)amino]-2-(1H-tetrazol-5-yl)benzoate]
21 | 121 nM | CC[C@@H](C)NC(=O)c1ccc(NC(=O)C2(c3ccc(C(F)(F)F)cc3F)CC2)cc1-c1nnn[nH]1 [Example 37, N-[(2R)-butan-2-yl]-4-[({1-[2-fluoro-4-(trifluoromethyl)phenyl]cyclopropyl}carbonyl)amino]-2-(1H-tetrazol-5-yl)benzamide]
22 | 80 nM | CC[C@H](C)NC(=O)c1ccc(NC(=O)C2(c3ccc(C(F)(F)F)cc3F)CC2)cc1-c1nnn[nH]1 [Example 38, N-[(2S)-butan-2-yl]-4-[({1-[2-fluoro-4-(trifluoromethyl)phenyl]cyclopropyl}carbonyl)amino]-2-(1H-tetrazol-5-y)benzamide]

Source: US20190177284A1, “TETRAZOLYL-CONTAINING CYCLOPROPANECARBOXAMIDES” (Bayer Pharma Aktiengesellschaft, priority 2017, published 2019)
